Laboratory results: patent US20250122222A1, “HETEROCYCLIC COMPOUNDS AND METHODS OF USE” (AMGEN INC., priority 2021, published 2025)

target: His-tagged KRAS G12D protein (Homo sapiens, UniProt P01116, G12D); test: KRAS G12D TR-FRET assay (binding); settings: biotinylated KRPep-2d substrate, GDP in assay buffer
Sequence (P01116 1-188 isoform P01116-2 G12D): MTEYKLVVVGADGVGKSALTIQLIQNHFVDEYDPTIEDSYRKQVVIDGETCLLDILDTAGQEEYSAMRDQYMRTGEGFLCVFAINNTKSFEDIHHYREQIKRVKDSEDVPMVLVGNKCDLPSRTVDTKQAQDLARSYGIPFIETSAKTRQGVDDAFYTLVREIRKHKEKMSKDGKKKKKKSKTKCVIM
Protocol: The plate was incubated for 30 minutes at room temperature. Biotinylated KRPep-2d substrate (Amgen) was diluted to 20 nM in Assay Buffer and 2 L was added to all wells and incubated for 1 hour at room temperature. Detection Reagent (0.4 nM LANCE Eu-W1024 Anti-6xHis (Perkin Elmer AD0401), 5 nM streptavidin-d^2 (Cisbio 610SADLA)) was prepared in Assay Buffer, then 4 μL was added to the plate and incubated for 1 hour at room temperature.

First: CCc1c(F)ccc2cc(O)cc(-c3ncc4c(N5CC6COC(C5)C6O)nc(OC[C@@]56CCCN5C[C@H](F)C6)nc4c3F)c12 (relative stereo) [Example 11, 3-(7-(8-Ethyl-7-fluoro-3-hydroxynaphthalen-1-yl)-8-fluoro-2-(((2R,7aS)-2-fluorotetrahydro-1H-pyrrolizin-7a(5H)-yl)methoxy)pyrido [4,3-d]pyrimidin-4-yl)-6-oxa-3-azabicyclo[3.2.1] octan-8-ol]
Second: CCc1c(F)ccc2cc(O)cc(-c3ncc4c(N5CC6COCC(C5)C6O)nc(OC[C@@]56CCCN5C[C@H](F)C6)nc4c3F)c12 (stereo partly drawn) [Example 58, 7-(7-(8-Ethyl-7-fluoro-3-hydroxy-naphthalen-1-yl)-8-fluoro-2-(((2R,7aS)-2-fluorotetrahydro-1H-pyrrolizin-7a(5H)-yl)meth-oxy)pyrido[4,3-d]pyrimidin-4-yl)-3-oxa-7-azabicyclo [3.3.1]nonan-9-ol]
The IC50 of the first is 2.8-fold higher: 39 nM for the first, 14 nM for the second. The second is the more potent here.

Going from `CCc1c(F)ccc2cc(O)cc(-c3ncc4c(N5CCCOC(C(=O)NC)C5)nc(OC[C@@]56CCCN5C[C@H](F)C6)nc4c3F)c12` (single isomer, unassigned) [Example 42] to `CCc1c(F)ccc2cc(O)cc(-c3ncc4c(N5CCOCC(C(=O)NC)C5)nc(OC[C@@]56CCCN5C[C@H](F)C6)nc4c3F)c12` (single isomer, unassigned) [Example 44], the IC50 rises from 2 nM to 26 nM (13-fold).

First: CCc1c(F)ccc2cc(O)cc(-c3ncc4c(N5CCCOC(C(=O)NC)C5)nc(OC[C@@]56CCCN5C[C@H](F)C6)nc4c3F)c12 (single isomer, unassigned) [Example 43]
Second: CCc1c(F)ccc2cc(O)cc(-c3ncc4c(N5CCOCC(C(=O)NC)C5)nc(OC[C@@]56CCCN5C[C@H](F)C6)nc4c3F)c12 (single isomer, unassigned) [Example 45]
The IC50 of the first is 120-fold higher: 249 nM for the first, 2 nM for the second.

`CCc1c(F)ccc2cc(O)cc(-c3ncc4c(N5CCOCC(C(N)=O)C5)nc(OC[C@@]56CCCN5C[C@H](F)C6)nc4c3F)c12` (single isomer, unassigned) [Example 46] and `CCc1c(F)ccc2cc(O)cc(-c3ncc4c(N5CCOC(CO)C5)nc(OC[C@@]56CCCN5C[C@H](F)C6)nc4c3F)c12` (stereo partly drawn) [Example 60, 5-Ethyl-6-fluoro-4-(8-fluoro-2-(((2R, 7aS)-2-fluorotetra-hydro-1H-pyrrol-izin-7a(5H)-yl)-methoxy)-4-(2-(hydroxymethyl)-morpholino)pyrido [4,3-d]pyrimidin-7-yl)naphthalen-2-ol] are within 1.5-fold of each other in IC50: 17 nM for the first, 15 nM for the second.

First: CCc1c(F)ccc2cc(O)cc(-c3ncc4c(N5CCOCC(C(N)=O)C5)nc(OC[C@@]56CCCN5C[C@H](F)C6)nc4c3F)c12 (single isomer, unassigned) [Example 47]
Second: CCc1c(F)ccc2cc(O)cc(-c3ncc4c(N5CCOC(C(F)F)C5)nc(OC[C@@]56CCCN5C[C@H](F)C6)nc4c3F)c12 (stereo partly drawn) [Example 75, 4-(4-(2-(Difluoromethyl)morpholino)-8-fluoro-2-(((2R,7aS)-2-fluorotetrahydro-1H-pyrrolizin-7a(5H)-yl)methoxy)pyrido[4,3-d]pyrimidin-7-yl)-5-ethyl-6-fluoronaphthalen-2-ol]
The IC50 of the first is 17-fold lower: 3 nM for the first, 52 nM for the second. The first is the more potent here.

Compared with `CCc1c(F)ccc2cc(O)cc(-c3ncc4c(N5CCCOC(CO)C5)nc(OC[C@@]56CCCN5C[C@H](F)C6)nc4c3F)c12` (single isomer, unassigned) [Example 48], `CCc1c(F)ccc2cc(O)cc(-c3ncc4c(N5CCOC(CC#N)C5)nc(OC[C@@]56CCCN5C[C@H](F)C6)nc4c3F)c12` (stereo partly drawn) [Example 65, 2-(4-(7-(8-Ethyl-7-fluoro-3-hydroxy-naphthalen-1-yl)-8-fluoro-2-(((2R,7aS)-2-fluorotetrahydro-1H-pyrrolizin-7a(5H)-yl)methoxy)-pyrido[4,3-d]pyrim-idin-4-yl)morpholin-2-yl)acetonitrile] is 4.3-fold higher in IC50: 10 nM for the first, 43 nM for the second.

Going from `CCc1c(F)ccc2cc(O)cc(-c3ncc4c(N5CC6CC(C#N)C(C5)O6)nc(OC[C@@]56CCCN5C[C@H](F)C6)nc4c3F)c12` (single isomer, unassigned) [Example 72] to `CCc1c(F)ccc2cc(O)cc(-c3ncc4c(N5C[C@H]6CCC[C@@H](C5)O6)nc(OC[C@@]56CCCN5C[C@H](F)C6)nc4c3F)c12` [Example 64, 4-(4-((1R,5S)-9-oxa-3-azabicyclo [3.3.1]nonan-3-yl)-8-fluoro-2-(((2R, 7aS)-2-fluorotetra-hydro-1H-pyrrolizin-7a(5H)-yl)methoxy)-pyrido[4,3-d]pyrim-idin-7-yl)-5-ethyl-6-fluoronaphthalen-2-ol], the IC50 rises from 6 nM to 44 nM (7.3-fold).

`CCc1c(F)ccc2cc(O)cc(-c3ncc4c(N5CCCOCC5)nc(OCC5(C)CCC(=O)N5)nc4c3F)c12` (centres unmarked) [Example 30, 5-(((7-(8-ethyl-7-fluoro-3-hydroxynaphthalen-1-yl)-8-fluoro-4-(1,4-oxazepan-4-yl)pyrido[4,3-d]pyrimidin-2-yl)oxy)methyl)-5-methylpyrrolidin-2-one] and `CCc1c(F)ccc2cc(O)cc(-c3ncc4c(N5CCCOCC5)nc(OCC5(CO)CC5)nc4c3F)c12` [Example 77, 5-Ethyl-6-fluoro-4-(8-fluoro-2-((1-(hydroxymethyl)cyclopropyl)methoxy)-4-(1,4-oxazepan-4-yl)pyrido[4,3-d]pyrimidin-7-yl)naphthalen-2-ol] are within 1.5-fold of each other in IC50: 37 nM for the first, 41 nM for the second.

Compared with `CCc1c(F)ccc2cc(O)cc(-c3ncc4c(N5CCCOCC5)nc(OCC5(C#N)CCNC5)nc4c3F)c12` (centres unmarked) [Example 31, 3-(((7-(8-ethyl-7-fluoro-3-hydroxynaphthalen-1-yl)-8-fluoro-4-(1,4-oxazepan-4-yl)pyrido[4,3-d]pyrimidin-2-yl)oxy)methyl) pyrrolidine-3-carbonitrile], `CCc1c(F)ccc2cc(O)cc(-c3ncc4c(N5CCCOCC5)nc(OCC5(C#N)CCN(C)C5)nc4c3F)c12` (centres unmarked) [Example 33, 3-(((7-(8-ethyl-7-fluoro-3-hydroxynaphthalen-1-yl)-8-fluoro-4-(1,4-oxazepan-4-yl)pyrido[4,3-d]pyrimidin-2-yl)oxy)methyl)-1-methylpyrrolidine-3-carbonitrile] is 2.5-fold higher in IC50: 11 nM for the first, 27 nM for the second. The first is the more potent here.

`CCc1c(F)ccc2cc(O)cc(-c3ncc4c(N5CCSC(CO)C5)nc(OC[C@@]56CCCN5C[C@H](F)C6)nc4c3F)c12` (stereo partly drawn) [Example 40, 5-Ethyl-6-fluoro-4-(8-fluoro-2-(((2R,7aS)-2-fluorotetrahydro-1H-pyrrolizin-7a(5H)-yl)methoxy)-4-(2-(hydroxymethyl)thiomorpholino)pyrido[4,3-d]pyrimidin-7-yl)naphthalen-2-ol] and `CCc1c(F)ccc2cc(O)cc(-c3ncc4c(N5CCOCC[C@H]5C)nc(OC[C@@]56CCCN5C[C@H](F)C6)nc4c3F)c12` [Example 54, 5-Ethyl-6-fluoro-4-(8-fluoro-2-(((2R,7aS)-2-fluorotetrahydro-1H-pyrrolizin-7a(5H)-yl)methoxy)-4-((R)-5-methyl-1,4-oxazepan-4-yl)pyrido[4,3-d]pyrimidin-7-yl)naphthalen-2-ol] are within 1.5-fold of each other in IC50: 6 nM for the first, 7 nM for the second.

Work on `CCc1c(F)ccc2cc(O)cc(-c3ncc4c(N5CCOCC[C@@H]5C)nc(OC[C@@]56CCCN5C[C@H](F)C6)nc4c3F)c12` [Example 55, 5-Ethyl-6-fluoro-4-(8-fluoro-2-(((2R, 7aS)-2-fluorotetra-hydro-1H-pyrrol-izin-7a(5H)-yl)-methoxy)-4-((S)-5-methyl-1,4-oxazepan-4-yl)-pyrido[4,3-d]pyrimidin-7-yl)-naphthalen-2-ol] yielded an IC50 of 7 nM.

system: Phosphorylation of ERK1/2 in AsPC-1 cells; test: Phospho-ERK1/2 MSD assay; format: cell-based; settings: Homo sapiens, ASPC1, read-out: 2 h p-ERK (AsPC-1 cells), IC50 (μM), 2 hours compound treatment
Protocol: Sixteen hours prior to compound treatment, AsPC-1 cells were seeded in 96-well cell culture plates at a density of 25,000 cells/well and incubated at 37° C., 5% CO2. A compound dose-response titration was diluted in growth media, added to appropriate wells of a cell culture plate, and then incubated at 37° C., 5% CO2 for 2 hours.

Going from `CCc1c(F)ccc2cc(O)cc(-c3ncc4c(N5CC6COC(C5)C6O)nc(OC[C@@]56CCCN5C[C@H](F)C6)nc4c3F)c12` (relative stereo) [Example 11, 3-(7-(8-Ethyl-7-fluoro-3-hydroxynaphthalen-1-yl)-8-fluoro-2-(((2R,7aS)-2-fluorotetrahydro-1H-pyrrolizin-7a(5H)-yl)methoxy)pyrido [4,3-d]pyrimidin-4-yl)-6-oxa-3-azabicyclo[3.2.1] octan-8-ol] to `CCc1c(F)ccc2cc(O)cc(-c3ncc4c(N5CC6CC(C#N)C(C5)O6)nc(OC[C@@]56CCCN5C[C@H](F)C6)nc4c3F)c12` (single isomer, unassigned) [Example 72], the IC50 falls from > 10 µM to 0.308 µM. The second is the more potent here.

Compared with `CCc1c(F)ccc2cc(O)cc(-c3ncc4c(N5CCOCC(C(=O)NC)C5)nc(OC[C@@]56CCCN5C[C@H](F)C6)nc4c3F)c12` (single isomer, unassigned) [Example 45], `CCc1c(F)ccc2cc(O)cc(-c3ncc4c(N5CCOCC(C(N)=O)C5)nc(OC[C@@]56CCCN5C[C@H](F)C6)nc4c3F)c12` (single isomer, unassigned) [Example 47] is 3.4-fold higher in IC50: 0.427 µM for the first, 1.47 µM for the second. The first is the more potent here.

Going from `CCc1c(F)ccc2cc(O)cc(-c3ncc4c(N5CCCOC(CO)C5)nc(OC[C@@]56CCCN5C[C@H](F)C6)nc4c3F)c12` (single isomer, unassigned) [Example 48] to `CCc1c(F)ccc2cc(O)cc(-c3ncc4c(N5CCOC[C@@H](CO)C5)nc(OC[C@@]56CCCN5C[C@H](F)C6)nc4c3F)c12` [Example 50, 5-Ethyl-6-fluoro-4-(8-fluoro-2-(((2R, 7aS)-2-fluorotetra-hydro-1H-pyrrol-izin-7a(5H)-yl)-methoxy)-4-((R)-6-(hydroxymeth-yl)-1,4-oxazepan-4-yl)pyrido[4,3-d]pyrimidin-7-yl)-naphthalen-2-ol], the IC50 falls from 1.05 µM to 0.07 µM (15-fold).

Compared with `CCc1c(F)ccc2cc(O)cc(-c3ncc4c(N5CCOCC(C)(O)C5)nc(OC[C@@]56CCCN5C[C@H](F)C6)nc4c3F)c12` (single isomer, unassigned) [Example 69], `CCc1c(F)ccc2cc(O)cc(-c3ncc4c(N5CCOC[C@@H](O)C5)nc(OC[C@@]56CCCN5C[C@H](F)C6)nc4c3F)c12` [Example 25, (S)-4-(7-(8-Ethyl-7-fluoro-3-hydroxynaphthalen-1-yl)-8-fluoro-2-(((2R,7aS)-2-fluorotetrahydro-1H-pyrrolizin-7a(5H)-yl)methoxy)pyrido [4,3-d]pyrimidin-4-yl)-1,4-oxazepan-6-ol] is 73-fold higher in IC50: 0.004 µM for the first, 0.292 µM for the second. The first is the more potent here.

Compared with `Oc1cc(-c2ncc3c(N4CCCOCC4)nc(OC[C@@]45CCCN4C[C@H](F)C5)nc3c2F)c2ccccc2c1` [Example 14, 4-(8-Fluoro-2-(((2R,7aS)-2-fluorotetrahydro-1H-pyrrolizin-7a(5H)-yl)methoxy)-4-(1,4-oxazepan-4-yl)pyrido[4,3-d]pyrimidin-7-yl)naphthalen-2-ol], `CCc1c(F)ccc2cc(O)cc(-c3ncc4c(N5CCCOCC5)nc(OC[C@]56CCCN5C[C@H](F)C6)nc4c3F)c12` [Example 41, 5-ethyl-6-fluoro-4-(8-fluoro-2-(((2R, 7aR)-2-fluorotetra-hydro-1H-pyrrol-izin-7a(5H)-yl)-methoxy)-4-(1,4-oxazepan-4-yl)pyr-ido[4,3-d]pyrimi-din-7-yl)naphtha-len-2-ol] is 23-fold lower in IC50: 0.794 µM for the first, 0.035 µM for the second. The second is the more potent here.

`CCc1c(F)ccc2cc(O)cc(-c3ncc4c(N5CCOC[C@H](O)C5)nc(OC[C@@]56CCCN5C[C@H](F)C6)nc4c3F)c12` [Example 26, (R)-4-(7-(8-Ethyl-7-fluoro-3-hydroxynaphthalen-1-yl)-8-fluoro-2-(((2R,7aS)-2-fluorotetrahydro-1H-pyrrolizin-7a(5H)-yl)methoxy)pyrido [4,3-d]pyrimidin-4-yl)-1,4-oxazepan-6-ol] gave an IC50 of 2.27 µM.
